Measured values as given in patent US11766430B2, “Methods of using a phenoxypropylamine compound to treat pain” (Minerva Neurosciences, Inc., priority 2018, dated 2023).
Values joined by “and” are separate entries in the source; they are usually repeats but may differ in a detail not shown here. Equal entries are not always repeated.

Test system: carrageenan-induced mechanical hyperalgesia in rats
Test: Carrageenan-induced mechanical hyperalgesia, paw pressure test, time course to 240 min (Example 2)
Format: in vivo, male Sprague-Dawley rats
Settings: 3 mg/kg s.c.
Experimental: In this model, inflammation is induced by intraplantar injection of carrageenan (2%) into the right hindpaw of the rat. Three hours later, reaction thresholds are measured using the paw pressure test. Pressure is gradually applied to both hind paws (inflamed and control) of the rat, and reaction thresholds are determined as the pressure (g) required to elicit paw withdrawal or vocalization. Morphine (3 mg/kg, s.c.) was used as a positive control.
The experiments in this study used fifty (50) male Sprague-Dawley rats (SPF status, Janvier, France), each weighing 204-260 grams. The rats were housed in a temperature (20-24° C.) and relative humidity (45%-65%) controlled room and acclimated to an artificial day/night cycle of 12 hours light (6.30 a.m. to 6.30 p.m.)/12 hours darkness. Rats had free access to sterilized tap water and were fed ad libitum with pelleted complete diet (reference A04, S.A.F.E.). Rats were housed 4 per cage (cages Type E) and were acclimated for a period of at least 5 days before any testing. Each rat was identified by tail markings. Based on the SPF status of the animal facilities, there is no reason to expect that contaminants were present in the food, water or bedding, at levels capable of interfering with the results of the tests.
Pain Test: Static mechanical hyperalgesia was assessed using the Paw Pressure test or Randall & Selitto test (Randall, L. O. and Selitto, J. J., A method for measurement of analgesic activity on inflamed tissue, Arch Int Pharmacodyn, 1957(111): 409-419). This test requires the application of an increasing pressure on the hind paws between a flat surface and a blunt pointer. This test is usually used with animals with one hind paw inflamed by an injection or injured by ligation, and one normal hind paw, to evaluate drugs for analgesic action. The apparatus exerts a steadily increasing force and reaction threshold is determined as the pressure (g) required to elicit paw withdrawal and/or vocalization. In the experiment, animals were gently handled by the experimenter and static mechanical hyperalgesia was assessed. Each reaction threshold measurement was done for both hind paws.
Five (5) experimental groups of 10 rats each were used. Each group was first injected with of 100 μL of a 2% carrageenan suspension in the plantar aspect of the right hindpaw. Three hours after carrageenan injection, paw withdrawal threshold was measured using the paw pressure test (Baseline). The 5 groups were then administered the following: • Group 1: vehicle (0.5% HPMC), i.p., solution (negative control); • Group 2: MIN-117 (0.01 mg/kg, i.p.) in 0.5% HPMC, suspension; • Group 3: MIN-117 (0.1 mg/kg, i.p.) in 0.5% HPMC, suspension; • Group 4: MIN-117 (1 mg/kg, i.p.) in 0.5% HPMC, suspension; and • Group 5: morphine (3 mg/kg, s.c.) in 0.9% NaCl, solution (positive control).
After administering vehicle, MIN-117, or morphine, the antihyperalgesic effect of the compounds was evaluated using the paw pressure test at 0 min. (T0), 30 min., 60 min., 120 min., and 240 min.
Vehicle and MIN-117 were administered intraperitoneally at 10 mL/kg. Morphine was subcutaneously administered at 5 mL/kg. Dosing and testing were performed in a random order by a blinded experimenter except for the morphine-treated group. Doses were expressed in terms of free active substance. Rats were sacrificed at the end of the experiment by CO2 inhalation pending subsequent removal by a certified company.
Results were assessed as: the paw withdrawal threshold (mean±s.e.m.) in grams of contact pressure for each group, calculated from individual paw withdrawal thresholds; the percentage of variation of the paw withdrawal threshold calculated from the mean value of the vehicle-treated group; and/or the percentage of activity. To determine a statistical effect of the test substance and the reference substance, data were analyzed by a non-parametrical test. The significance level was p<0.05.

[1] = 120 min, listed as Morphine HCl
[2] = 240 min, listed as Morphine HCl
[3] = Baseline, listed as Morphine HCl
[4] = T0 (baseline before dosing), listed as Morphine HCl
[5] = T0 + 30 min, listed as Morphine HCl

Q: For `CN1CC[C@]23c4c5ccc(O)c4O[C@H]2[C@@H](O)C=C[C@H]3[C@H]1C5` [Morphine, reference compound], which “Time of maximum effect on injured paw withdrawal threshold after treatment” value is on record?
A: 30 min

Q: What about the “Nociceptive threshold, control paw, individual rats” value (30 min, listed as Morphine HCl) of the same compound?
A: 680 g (9×) and 520 g

Q: And the “Nociceptive threshold, injured paw, individual rats” value (30 min, listed as Morphine HCl)?
A: 600 g and 620 g (2×) and 560 g and 640 g and 680 g (3×) and 440 g and 400 g

Q: And the “Nociceptive threshold, control paw, individual rats” value (60 min, listed as Morphine HCl)?
A: 580 g and 680 g (8×) and 520 g

Q: What about the “Nociceptive threshold, injured paw, individual rats” value (60 min, listed as Morphine HCl) of the same compound?
A: 440 g and 600 g (3×) and 460 g and 620 g (2×) and 680 g and 480 g and 380 g

Q: And the “Nociceptive threshold, control paw, individual rats” value [1]?
A: 480 g and 320 g and 440 g (3×) and 500 g and 380 g and 520 g and 460 g and 360 g

Q: And the “Nociceptive threshold, injured paw, individual rats” value [1]?
A: 280 g (3×) and 260 g and 400 g and 320 g (2×) and 440 g and 220 g and 200 g

Q: What about the “Nociceptive threshold, control paw, individual rats” value [2] of the same compound?
A: 320 g (4×) and 360 g (4×) and 400 g and 420 g

Q: And the “Nociceptive threshold, injured paw, individual rats” value [2]?
A: 160 g (3×) and 180 g (3×) and 200 g (2×) and 240 g and 140 g

Q: And the “Nociceptive threshold, control paw, individual rats” value [3]?
A: 320 g (2×) and 440 g and 420 g (3×) and 360 g (2×) and 460 g and 380 g

Q: And the “Nociceptive threshold, injured paw, individual rats” value [3]?
A: 160 g and 200 g (5×) and 220 g and 180 g (3×)

Q: What about the “% activity, injured paw” value (T0 (baseline before dosing)) of the same compound?
A: 2%

Q: What about the “% variation vs control paw, injured paw” value (T0 (baseline before dosing)) of the same compound?
A: −51%

Q: What about the “% variation vs vehicle-treated group, injured paw” value (T0 (baseline before dosing)) of the same compound?
A: 5%

Q: What about the “Nociceptive threshold, control paw (mean ± s.e.m.)” value (T0 (baseline before dosing)) of the same compound?
A: 390.0 ± 15.6 g

Q: What about the “Nociceptive threshold, injured paw (mean ± s.e.m.)” value (T0 (baseline before dosing)) of the same compound?
A: 192 ± 5.3 g

Q: And the “Nociceptive threshold, control paw (mean ± s.e.m.)” value [4]?
A: 390. g

Q: And the “Nociceptive threshold, injured paw (mean ± s.e.m.)” value [4]?
A: 192 g

Q: And the “% activity, injured paw” value (T0 + 30 min)?
A: 230%

Q: What about the “% variation vs control paw, injured paw” value (T0 + 30 min) of the same compound?
A: −11%

Q: And the “% variation vs pre-drug threshold, injured paw” value (T0 + 30 min)?
A: 208%

Q: What about the “Nociceptive threshold, control paw (mean ± s.e.m.)” value (T0 + 30 min) of the same compound?
A: 664 g

Q: And the “Nociceptive threshold, injured paw (mean ± s.e.m.)” value (T0 + 30 min)?
A: 592 ± 31.3 g

Q: And the “% variation vs vehicle-treated group, injured paw” value [5]?
A: 233%

Q: And the “Nociceptive threshold, injured paw (mean ± s.e.m.)” value [5]?
A: 592 g

Q: What about the “% activity, injured paw” value (T0 + 60 min) of the same compound?
A: 214%

Q: What about the “% variation vs control paw, injured paw” value (T0 + 60 min) of the same compound?
A: −16%

Q: What about the “% variation vs pre-drug threshold, injured paw” value (T0 + 60 min) of the same compound?
A: 185%

Q: And the “% variation vs vehicle-treated group, injured paw” value (T0 + 60 min)?
A: 191%

Q: What about the “Nociceptive threshold, control paw (mean ± s.e.m.)” value (T0 + 60 min) of the same compound?
A: 654 g

Q: And the “Nociceptive threshold, injured paw (mean ± s.e.m.)” value (T0 + 60 min)?
A: 548 ± 31.3 g

Q: What about the “Nociceptive threshold, injured paw (mean ± s.e.m.)” value (T0 + 60 min, listed as Morphine HCl) of the same compound?
A: 548 g

Q: What about the “% activity, injured paw” value (T0 + 120 min) of the same compound?
A: 72%

Q: And the “% variation vs control paw, injured paw” value (T0 + 120 min)?
A: −31%

Q: And the “% variation vs pre-drug threshold, injured paw” value (T0 + 120 min)?
A: 56%

Q: And the “% variation vs vehicle-treated group, injured paw” value (T0 + 120 min)?
A: 61%

Q: And the “Nociceptive threshold, control paw (mean ± s.e.m.)” value (T0 + 120 min)?
A: 434 g

Q: And the “Nociceptive threshold, injured paw (mean ± s.e.m.)” value (T0 + 120 min)?
A: 300 ± 23.5 g

Q: And the “Nociceptive threshold, injured paw (mean ± s.e.m.)” value (T0 + 120 min, listed as Morphine HCl)?
A: 300 g

Q: What about the “% activity, injured paw” value (T0 + 240 min) of the same compound?
A: −4%

Q: What about the “% variation vs control paw, injured paw” value (T0 + 240 min) of the same compound?
A: −49%

Q: What about the “% variation vs pre-drug threshold, injured paw” value (T0 + 240 min) of the same compound?
A: −6%

Q: What about the “% variation vs vehicle-treated group, injured paw” value (T0 + 240 min) of the same compound?
A: −3%

Q: What about the “Nociceptive threshold, control paw (mean ± s.e.m.)” value (T0 + 240 min) of the same compound?
A: 354 g

Q: What about the “Nociceptive threshold, injured paw (mean ± s.e.m.)” value (T0 + 240 min) of the same compound?
A: 180 ± 8.9 g

Q: And the “Nociceptive threshold, injured paw (mean ± s.e.m.)” value (T0 + 240 min, listed as Morphine HCl)?
A: 180 g

Q: And the “Effect on injured paw withdrawal threshold vs vehicle-treated group (in words)” value (from 30 min. to 120 min. after administration)?
A: marked and significant increase
